The test system of data set [1] is MCF-7, T47D, HeLa, SiHa, C33A, A2780 cells. Kind of data set: MTT antiproliferative assay, panel of human gynecological cancer cell lines (result in words). The data set is classed as cell-based. As to the method: The antiproliferative assays of the products were carried out by a standard MTT method on human breast (MCF-7, T47D), cervical (HeLa, SiHa, C33A), and ovarian (A2780) cancer cells, and NIH/3T3 mouse embryonic fibroblast cell lines. In the first step, the diastereomeric and racemic mixtures 1–11 and the starting compound, juncuenin B, were tested to obtain information about their antiproliferative activity.
The antiproliferative activity and tumor selectivity of the compounds were measured by standard MTT assays. Tumor cell lines MCF-7, T47D, HeLa, A2780, and noncancerous NIH/3T3 were provided by European Collection of Authenticated Cell Cultures (ECACC, Salisbury, UK); cell lines SiHa and C33A by LGC Standards GmbH (Wesel, Germany). All chemicals and materials used for the antiproliferative assays were purchased from Sigma Aldrich Ltd. (Budapest, Hungary).
Growth-inhibition properties of racemates and pure enantiomer compounds were determined by standard MTT assays on six human malignant gynecological cell lines (MCF-7, T47D, HeLa, SiHa, C33A, A2780). To investigate tumor selectivity, the MTT assay was repeated on mouse embryonic fibroblast cells (NIH/3T3) under the same conditions. All cell lines were maintained in minimal essential medium (MEM) supplemented with 10% fetal bovine serum, 1% nonessential amino acids, and 1% penicillin–streptomycin–amphotericin B mixture, and were stored in humidified air containing 5% CO2 at 37 °C. All cell types were seeded into 96–well plates at a density of 5000 with the exception of C33a, which was seeded at a density of 10 000 and treated by increasing concentrations (0.1–30 μM) of the compounds for 72 h under cell culturing conditions. After the incubation, 5 mg/mL MTT [3-(4,5-dimethylthiazol-2-yl)-2,5-diphenyltetrazolium bromide] solution was added to samples for 4 h and precipitated blue formazan crystals were dissolved in DMSO. Absorbance values of the samples were measured at 545 nm using a microplate reader (Stat Fax-2100, Awareness Technologies Inc., Palm City, FL, USA) and untreated cells were used as control. Normalized sigmoidal dose–response curves were fitted to the determined data and the IC50 values were calculated by GraphPad Prism 5.01 (GraphPad Software, San Diego, CA, USA). Cisplatin (Ebewe Pharma GmbH, Unterach, Austria) was used as a reference agent in the same concentration range.
For orientation: Tetrazolium assays rely on reduction of a dye to a coloured formazan, in cell work by metabolically active cells.

For data set [2], the system named is MCF-7 cells. The experiment in a line: MTT antiproliferative assay on MCF-7. The format is cell-based, human. Particulars: for inhibition at 10 µM: MCF7, 10 μM; for inhibition at 10 µM / inhibition at 30 µM: read-out: Growth inhibition (% ± SEM), MCF-7; for inhibition at 30 µM: MCF7, 30 μM; for IC50: MTT, 0.1–30 μM, 72 h, mean ± SEM, read-out: calculated IC50 values, MCF-7.

For data set [3], the system named is A2780 cells. The experiment in a line: MTT antiproliferative assay on A2780. The format is cell-based, human. Particulars: Homo sapiens; for inhibition at 10 µM: A2780, 10 μM; for inhibition at 10 µM / inhibition at 30 µM: read-out: Growth inhibition (% ± SEM), A2780; for inhibition at 30 µM: A2780, 30 μM; for IC50: A2780, MTT, 0.1–30 μM, 72 h, mean ± SEM, read-out: calculated IC50 values, A2780.

Data set [4] deals with HeLa cells. The experiment in a line: MTT antiproliferative assay on HeLa. The format is cell-based, human. Particulars: Homo sapiens, HeLa; for inhibition at 10 µM / inhibition at 30 µM: read-out: Growth inhibition (% ± SEM), HeLa; for IC50: MTT, 0.1–30 μM, 72 h, mean ± SEM, read-out: calculated IC50 values, HeLa.
The subject of data set [5] is C33A cells. Kind of data set: MTT antiproliferative assay on C33A. Particulars: for inhibition at 10 µM / inhibition at 30 µM: read-out: Growth inhibition (% ± SEM), C33a; for IC50: MTT, 0.1–30 μM, 72 h, mean ± SEM, read-out: calculated IC50 values, C33A. The data set is classed as cell-based, human.
Data set [6] concerns T47D cells. Kind of data set: MTT antiproliferative assay on T47D. The format is cell-based, human. Particulars: Homo sapiens, T47D; for inhibition at 10 µM / inhibition at 30 µM: read-out: Growth inhibition (% ± SEM), T47d; for IC50: MTT, 0.1–30 μM, 72 h, mean ± SEM, read-out: calculated IC50 values, T47D.
The test system of data set [7] is NIH/3T3 mouse embryonic fibroblast cells. Kind of data set: MTT assay for tumor selectivity on NIH/3T3. The format is cell-based. Particulars: for IC50: MTT, 0.1–30 μM, 72 h, mean ± SEM, read-out: calculated IC50 values, NIH/3T3.
Data set [8] relates to SiHa cells. The experiment in a line: MTT antiproliferative assay on SiHa. Particulars: for inhibition at 10 µM / inhibition at 30 µM: read-out: Growth inhibition (% ± SEM), SiHa; for IC50: MTT, 0.1–30 μM, 72 h, mean ± SEM, read-out: calculated IC50 values, SiHa. The format is cell-based, human.
Data set [9] relates to HeLa cells. Particulars: cited from earlier work.
Data set [10] deals with A2780 cells. Particulars: read-out: IC50 value from literature, A2780; cited from earlier work.
The subject of data set [11] is T47D cells. Particulars: read-out: IC50 value from literature, T47D; cited from earlier work.

“Also recorded” adds a separate entry of the source. Like-named read-outs stand apart in the source and are kept apart here. Where only a bound is given, the exact number is not on record here.

For orientation: inhibition means the percentage by which the read-out fell short of the control.

Consider `C=CC1=C(C)C(=O)C=C2c3ccc(O)c(C)c3CC[C@]21OCC` [Compound 7b, 8a-ethoxy-1,7-dimethyl-6-oxo-8-vinyl-9,10-dihydrophenanthrene-2-ols], for which, in [1], the “antiproliferative activity (in words)” value was “no activity; also recorded: no relevant influence on the cell proliferation”. For the same compound, the inhibition at 10 µM is under 10% in data set [2] (Homo sapiens); under 10% in [3]; 15 ± 2.72% in data set [4]; under 10% in data set [5] (Homo sapiens, C-33-A); under 10% in data set [6]; under 10% in data set [7] (Mus musculus, NIH3T3, 10 μM, read-out: Growth inhibition (% ± SEM), NIH). The inhibition at 10 µM in data set [8] (Homo sapiens, SiHa) is under 10%. Further, the inhibition at 30 µM in data set [2] (Homo sapiens) is under 10%; in [3] it was 20.6 ± 2.43%; in data set [4], 31.7 ± 2.37%; in data set [5] (Homo sapiens, C-33-A) it was 26 ± 3%; in [6], 13.5 ± 2.41%; in data set [7] (Mus musculus, NIH3T3, 30 μM, read-out: Growth inhibition (% ± SEM), NIH), 10.5 ± 1%. Also, the inhibition at 30 µM in [8] (Homo sapiens, SiHa) was under 10%. Besides, the IC50 is over 30 µM in data set [2] (Homo sapiens, MCF7); over 30 µM in data set [3]; over 30 µM in [4]; over 30 µM in [5] (Homo sapiens, C-33-A); over 30 µM in data set [6]; over 30 µM in [7] (Mus musculus, NIH3T3). Further, in data set [8] (Homo sapiens, SiHa), the IC50 is over 30 µM.

`C=CC1=C(C)C(=O)C=C2c3ccc(O)c(C)c3CCC21OCCCC` (centres unmarked) [Compound 11]: the “antiproliferative activity (in words)” value in [1] is “No significant activities”. In addition, the inhibition at 10 µM in data set [2] (Homo sapiens) was 27.7 ± 1.3%; in data set [3] it was 28.3 ± 2.31%; in data set [4], under 10%; in data set [5] (Homo sapiens, C-33-A), 20.1 ± 2.24%; in data set [6], 11.6 ± 1.4%; in data set [8] (Homo sapiens, SiHa) it was under 10%. Besides, the inhibition at 30 µM is 82.46 ± 0.33% in [2] (Homo sapiens); 77.82 ± 0.69% in data set [3]; 42.6 ± 1.18% in data set [4]; 65.5 ± 1.26% in data set [5] (Homo sapiens, C-33-A); 52.9 ± 0.59% in data set [6]; under 10% in data set [8] (Homo sapiens, SiHa). For the same compound, the IC50 in data set [2] (Homo sapiens, MCF7) is 18.2 ± 0.2 µM; in [3], 16.5 ± 2 µM; in data set [4], over 30 µM; in data set [5] (Homo sapiens, C-33-A) it was 19.9 ± 1.3 µM; in data set [6] it was 30 ± 0.5 µM; in [7] (Mus musculus, NIH3T3), over 30 µM. Moreover, the IC50 in [8] (Homo sapiens, SiHa) was over 30 µM.

Take `C=Cc1c(C)c(O)cc2c1-c1ccc(O)c(C)c1CC2` [Juncusol]: in data set [9], the “cytotoxicity on HeLa cells (in words)” value is “cytotoxic”.

Take `N.N.[Cl][Pt][Cl]` [cisplatin, reference compound]: the IC50 was 5.8 µM in [2]; 1300 nM in [10]; 1.8 µM in data set [5]; 2.7 µM in data set [7]; 7.8 µM in data set [8]; 9.8 µM in [11].

Regarding `C=Cc1c(C)c(O)cc2c1CCc1c-2ccc(O)c1C` [juncuenin B, 1,7-dimethyl-8-vinyl-9,10-dihydrophenanthrene-2,6-diol], the inhibition at 10 µM in [2] (Homo sapiens) was 22.5 ± 2.02%; in data set [3], 61.2 ± 1.46%; in data set [4], 88.8 ± 1.15%; in data set [5] (Homo sapiens, C-33-A) it was 27.5 ± 2.45%; in data set [6], under 10%; in data set [8] (Homo sapiens, SiHa) it was 22.7 ± 2.89%. The inhibition at 30 µM in data set [2] (Homo sapiens) was 64.9 ± 2.1%; in [3] it was 85.91 ± 0.62%; in data set [4], 93.58 ± 0.41%; in data set [5] (Homo sapiens, C-33-A) it was 79.33 ± 0.7%; in data set [6], 54.2 ± 2.66%; in [8] (Homo sapiens, SiHa), 33.1 ± 1.76%. Besides, in data set [2] (MCF-7 versus T47D), the “fold stronger activity on MCF-7 than on T47D cells” value is reported as “approximately 2.5 fold”. Moreover, the IC50 was 12.7 ± 1.7 µM in data set [5] (Homo sapiens, C-33-A); over 30 µM in data set [8] (Homo sapiens, SiHa); over 30 µM in data set [11].
